From patent publication US20220387303A1, “Vaginal Drug Delivery Device” (THE REGENTS OF THE UNIVERSITY OF CALIFORNIA, priority 2019, published 2022)
In brackets after ≈: the same amount, converted by molar mass.

Tests used:
[1] = tested on: Candida albicans (ATCC 18804); experiment: Liquid assay, inhibition of yeast growth in Sabouraud dextrose broth; assay type: cell-based; conditions: for Optical Density (OD600): 12 h; for Cell Density: converted from OD600
Experimental: Liquid assay was also used to further characterize the […] properties. Candida albicans (ATCC 18804) was cultured in Sabouraud dextrose broth with a starting concentration of 0.08 OD600 value. After 12 h, optical density was measured using spectrometer at 600 nm wavelength. Then, conversion to cell density is using the approximation 0.5 equals 1.5×10^8 CFU/ml.

[2] = In vitro cumulative drug release from devices in PBS (pH 7.4) at 37° C. under gentle shaking; assay type: physicochemical

Structure (SMILES)	IC50 ([1]; Candida albicans, ATCC18804, after 12 h, starting 0.08 OD600, read-out: IC50 (half maximal inhibitory concentration)) [µg/mL]	Optical Density (OD600) ([1]; Clotrimazole Conc. 0.37 μg/ml)	Cell Density ([1]; Clotrimazole Conc. 0.37 μg/ml) [mL⁻¹]	Optical Density (OD600) ([1]; Clotrimazole Conc. 1.1 μg/ml)	Cell Density ([1]; Clotrimazole Conc. 1.1 μg/ml) [mL⁻¹]	Optical Density (OD600) ([1]; Clotrimazole Conc. 3.3 μg/ml)	Cell Density ([1]; Clotrimazole Conc. 3.3 μg/ml) [mL⁻¹]	Optical Density (OD600) ([1]; Clotrimazole Conc. 10 μg/ml)	Cell Density ([1]; Clotrimazole Conc. 10 μg/ml) [mL⁻¹]	sustained release duration ([2]; clotrimazole from PLGA device)	prolonged and sustained release of hormone drugs, duration ([2]; released from device)
Clc1ccccc1C(c1ccccc1)(c1ccccc1)n1ccnc1 [Clotrimazole]	3.3 (≈ 9.57 µM)	0.9	2.7e+08	0.8	2.4e+08	0.7	2.1e+08	0.5	1.5e+08	up to 10 days	
CC(=O)[C@H]1CC[C@H]2[C@@H]3CCC4=CC(=O)CC[C@]4(C)[C@H]3CC[C@]12C [progesterone]											more than two months
